# Results published in PubChem BioAssay (NCI).
#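 Compound exposure: 48 hours, 5 concentrations, 96-well plates. The concentration for full growth arrest is given as TGI.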
# Test system: CCRF-CEM leukemia
# Assay: NCI-60 cell line screen, 48 h
row,SMILES,TGI
1,Cc1ccc(C)c(N2C/C(=N\NC(=O)CC#N)C(c3nc4ccccc4s3)C(=O)C2=O)c1 (configuration not stated),> 100 µM
2,CCOCN1COCN(C)C1=O,> 100 µM
3,O=C1Sc2ccccc2C(=O)N2CSCC12 (configuration not stated),> 100 µM
4,O=C(CN(c1ccccc1)c1ccccc1)N1c2ccccc2C2C=CC=CC21 (configuration not stated),> 36.3 µM

# Test system: A549 NSCLC
# Assay: NCI-60 cell line screen, 48 h
row,SMILES,TGI
1,CC(C)CCC[C@@H](C)C1CCC2[C@@H]3CC=C4C[C@@H](C(=O)NCCN(C)C)CC[C@]4(C)C3CC[C@@]21C (some centres not stated),> 100 µM
2,CN(C(=O)c1ccc([N+](=O)[O-])cc1)c1ccccc1,> 100 µM
3,O=[N+]([O-])c1cccc(C2=NOC(C3CCCCC3)C2)c1 (configuration not stated),> 100 µM
4,Cc1ccc(C)c(N2C/C(=N\NC(=O)CC#N)C(c3nc4ccccc4s3)C(=O)C2=O)c1 (configuration not stated),> 100 µM
5,CCOCN1COCN(C)C1=O,> 100 µM
6,O=C1Sc2ccccc2C(=O)N2CSCC12 (configuration not stated),> 100 µM
7,O=C(CN(c1ccccc1)c1ccccc1)N1c2ccccc2C2C=CC=CC21 (configuration not stated),> 54.9 µM

# Test system: CAKI-1 renal
# Assay: NCI-60 cell line screen, 48 h
row,SMILES,TGI
1,CC(C)CCC[C@@H](C)C1CCC2[C@@H]3CC=C4C[C@@H](C(=O)NCCN(C)C)CC[C@]4(C)C3CC[C@@]21C (some centres not stated),> 100 µM
2,CN(C(=O)c1ccc([N+](=O)[O-])cc1)c1ccccc1,> 100 µM
3,Cc1ccc(C)c(N2C/C(=N\NC(=O)CC#N)C(c3nc4ccccc4s3)C(=O)C2=O)c1 (configuration not stated),> 100 µM
4,CCOCN1COCN(C)C1=O,> 100 µM
5,O=C(CN(c1ccccc1)c1ccccc1)N1c2ccccc2C2C=CC=CC21 (configuration not stated),32.2 µM

# Test system: HOP-18 NSCLC
# Assay: NCI-60 cell line screen, 48 h
row,SMILES,TGI
1,CC(C)CCC[C@@H](C)C1CCC2[C@@H]3CC=C4C[C@@H](C(=O)NCCN(C)C)CC[C@]4(C)C3CC[C@@]21C (some centres not stated),66.6 µM
2,CN(C(=O)c1ccc([N+](=O)[O-])cc1)c1ccccc1,> 100 µM
3,O=[N+]([O-])c1cccc(C2=NOC(C3CCCCC3)C2)c1 (configuration not stated),> 100 µM
4,Cc1ccc(C)c(N2C/C(=N\NC(=O)CC#N)C(c3nc4ccccc4s3)C(=O)C2=O)c1 (configuration not stated),> 100 µM
5,CCOCN1COCN(C)C1=O,> 100 µM
6,O=C1Sc2ccccc2C(=O)N2CSCC12 (configuration not stated),> 100 µM
7,O=C(CN(c1ccccc1)c1ccccc1)N1c2ccccc2C2C=CC=CC21 (configuration not stated),74.9 µM

# Test system: XF 498 CNS
# Assay: NCI-60 cell line screen, 48 h
row,SMILES,TGI
1,CC(C)CCC[C@@H](C)C1CCC2[C@@H]3CC=C4C[C@@H](C(=O)NCCN(C)C)CC[C@]4(C)C3CC[C@@]21C (some centres not stated),48.7 µM
2,CN(C(=O)c1ccc([N+](=O)[O-])cc1)c1ccccc1,> 100 µM
3,Cc1ccc(C)c(N2C/C(=N\NC(=O)CC#N)C(c3nc4ccccc4s3)C(=O)C2=O)c1 (configuration not stated),> 100 µM
4,CCOCN1COCN(C)C1=O,> 100 µM
5,O=C1Sc2ccccc2C(=O)N2CSCC12 (configuration not stated),> 100 µM
6,O=C(CN(c1ccccc1)c1ccccc1)N1c2ccccc2C2C=CC=CC21 (configuration not stated),53.2 µM

# Test system: RPMI-8226 leukemia
# Assay: NCI-60 cell line screen, 48 h
row,SMILES,TGI
1,CC(C)CCC[C@@H](C)C1CCC2[C@@H]3CC=C4C[C@@H](C(=O)NCCN(C)C)CC[C@]4(C)C3CC[C@@]21C (some centres not stated),94 µM
2,CN(C(=O)c1ccc([N+](=O)[O-])cc1)c1ccccc1,> 100 µM
3,CCOCN1COCN(C)C1=O,> 100 µM
4,O=C1Sc2ccccc2C(=O)N2CSCC12 (configuration not stated),> 100 µM
5,O=C(CN(c1ccccc1)c1ccccc1)N1c2ccccc2C2C=CC=CC21 (configuration not stated),> 28.1 µM

# Test system: KM20L2 colon
# Assay: NCI-60 cell line screen, 48 h
row,SMILES,TGI
1,CC(C)CCC[C@@H](C)C1CCC2[C@@H]3CC=C4C[C@@H](C(=O)NCCN(C)C)CC[C@]4(C)C3CC[C@@]21C (some centres not stated),> 100 µM
2,CN(C(=O)c1ccc([N+](=O)[O-])cc1)c1ccccc1,> 100 µM
3,Cc1ccc(C)c(N2C/C(=N\NC(=O)CC#N)C(c3nc4ccccc4s3)C(=O)C2=O)c1 (configuration not stated),> 100 µM
4,CCOCN1COCN(C)C1=O,> 100 µM
5,O=C1Sc2ccccc2C(=O)N2CSCC12 (configuration not stated),> 100 µM
6,O=C(CN(c1ccccc1)c1ccccc1)N1c2ccccc2C2C=CC=CC21 (configuration not stated),55.4 µM

# Test system: A498 renal
# Assay: NCI-60 cell line screen, 48 h
row,SMILES,TGI
1,CC(C)CCC[C@@H](C)C1CCC2[C@@H]3CC=C4C[C@@H](C(=O)NCCN(C)C)CC[C@]4(C)C3CC[C@@]21C (some centres not stated),> 100 µM
2,CN(C(=O)c1ccc([N+](=O)[O-])cc1)c1ccccc1,> 100 µM
3,O=[N+]([O-])c1cccc(C2=NOC(C3CCCCC3)C2)c1 (configuration not stated),> 100 µM
4,Cc1ccc(C)c(N2C/C(=N\NC(=O)CC#N)C(c3nc4ccccc4s3)C(=O)C2=O)c1 (configuration not stated),> 100 µM
5,CCOCN1COCN(C)C1=O,> 100 µM
6,O=C(CN(c1ccccc1)c1ccccc1)N1c2ccccc2C2C=CC=CC21 (configuration not stated),77.4 µM

# Test system: COLO 205 colon
# Assay: NCI-60 cell line screen, 48 h
row,SMILES,TGI
1,CC(C)CCC[C@@H](C)C1CCC2[C@@H]3CC=C4C[C@@H](C(=O)NCCN(C)C)CC[C@]4(C)C3CC[C@@]21C (some centres not stated),38.3 µM
